Experimental data from US20030124718A1, “Vaccine composition” (priority 2001, published 2003).

Key:
MHC = details: Table 1 characteristics, from references; cited from earlier work
[1] = Table 1 characteristics, from references; cited from earlier work
[2] = system: SIV-specific CD8+ T cell responses; experiment: IFNγ ELISPOT of epitope-specific CD8+ T cell responses in DNA-immunized / SIV-infected macaques; type: in vivo, rhesus macaques; details: for Epitope-specific responses, Group A monkeys, 2 weeks post-SIV infection / Epitope-specific responses, Group A monkeys, Post-immunization, Pre-infection / Epitope-specific responses, Group C monkeys, 2 weeks post-SIV infection: ELISPOT; for Epitope-specific responses, Group A monkeys, 2 weeks post-SIV infection / Epitope-specific responses, Group A monkeys, Post-immunization, Pre-infection: Mamu-A*01 positive macaques immunized before and after infection; for Epitope-specific responses, Group A monkeys, Post-immunization, Pre-infection: after DNA immunization, before SIV infection; for CD8+ T cell response against peptide after DNA immunization: Group A monkeys, ELISPOT after 1st-4th DNA immunization; for Epitope-specific responses, Group C monkeys, 2 weeks post-SIV infection: Mamu-A*01 positive macaques immunized only after infection
Method: Each monkey received a total of 4 immunizations consisting of 32.0 μg DNA (3.2 μg of each DNA vector) per immunization spaced 4-8 weeks apart. The epitope specificity of the CD8+ T cell responses was determined by ELISPOT following the 1st, 2nd, 3rd or 4th DNA immunization.
ELISPOTs were performed essentially as described (Roy et al. 2000). Briefly, antibody pairs against rhesus monkey IFNγ (Cytech-BV, Amsterdam, The Netherlands) were used to measure the number of r cells that secrete IFNγ. PBMC were cultured at 2 different dilutions in 96 well nitrocellulose filter plates (Millipore) previously coated with anti-cytokine mAbs. ^2 μg/ml of the appropriate MamuA*01 CTL peptide or pepset (Chiron) was then added.
CD8+ T cell responses were measured by ELISPOT. In A*01 positive monkeys, the average cumulative ELISPOT was determined at each timepoint by measuring responses following stimulation with 10 representative epitopes included in the vaccine. In A*01 negative monkeys, cumulative ELISPOT values were determined using gag and tat peptide pools.

[3] = system: SIV gag recombinant protein; experiment: Proliferation analysis of PBMC; type: in vivo, rhesus macaques; details: proliferative responses to SIV gag
Method: At each time point PBMC were isolated from whole blood by density gradient centrifugation over Ficoll-Hypaque and resuspended in complete RPMI media containing 10% human serum (R10 medium). In 96-well flat bottom plates, 2×10^5 PBMC/well were incubated for 6 days with 0.2 μg/well protein in R10 media. PBMC were stimulated 10 μg/ml of SIV gag recombinant protein (Intracel). Sixteen hours before the end of the assay, each well was pulsed with 1 μCi ^3H-thymidine. Cells were harvested and the isotope incorporation measured by scintillation spectroscopy. All assays were performed in triplicates.
Proliferative responses to SIV gag were measured during combined PMPA+DNA vaccine therapy (weeks 0-28) and after discontinuation of therapy (weeks 30-46 to date).

SIV/DeltaB670 = experiment: Plasma viral loads (real time PCR) after SIV challenge, PMPA + DNA vaccine immunotherapy

Molecule | immunogenicity [1] | Epitope-specific responses, Group A monkeys, 2 weeks post-SIV infection [2] | Epitope-specific responses, Group A monkeys, Post-immunization, Pre-infection [2] | CD8+ T cell response against peptide after DNA immunization [2] | Epitope-specific responses, Group C monkeys, 2 weeks post-SIV infection [2] | further results
ILKEPVHGVY | MHC, strong | – | – | – | – | binding affinity to MHC (MHC): CTL epitope, high
TVPWPNASL [Env622-630TL9] | – | +/+ (A + response = a minimum of 25 spot forming cells/1 × 10^6 PBMC was detected in at least 1 of the 8 monkeys per group) | +/+ (A + response = a minimum of 25 spot forming cells/1 × 10^6 PBMC was detected in at least 1 of the 8 monkeys per group) | Significant responses | – | –
QVPSLQYLA [Vifl44-152QA9] | – | +/+ (A + response = a minimum of 25 spot forming cells/1 × 10^6 PBMC was detected in at least 1 of the 8 monkeys per group) | +/+ (A + response = a minimum of 25 spot forming cells/1 × 10^6 PBMC was detected in at least 1 of the 8 monkeys per group) | Significant responses | NA/+ (A + response = a minimum of 25 spot forming cells/1 × 10^6 PBMC was detected in at least 1 of the 8 monkeys per group) | –
LAPVPIPFA [Gag372-380LA9] | – | +/+ (A + response = a minimum of 25 spot forming cells/1 × 10^6 PBMC was detected in at least 1 of the 8 monkeys per group) | +/+ (A + response = a minimum of 25 spot forming cells/1 × 10^6 PBMC was detected in at least 1 of the 8 monkeys per group) | Significant responses | – | –
STPESANL [Tat28-35SL8] | – | +/+ (A + response = a minimum of 25 spot forming cells/1 × 10^6 PBMC was detected in at least 1 of the 8 monkeys per group) | +/+ (A + response = a minimum of 25 spot forming cells/1 × 10^6 PBMC was detected in at least 1 of the 8 monkeys per group) | Significant responses | NA/+ (A + response = a minimum of 25 spot forming cells/1 × 10^6 PBMC was detected in at least 1 of the 8 monkeys per group) | –
LLWKGEGAV | MHC, strong | – | – | – | – | binding affinity to MHC (MHC): CTL epitope, high
FRKQNPDIVIYQYMDDLYVG | epitope, strong | – | – | – | – | –
RIQRGPGRAFVTIGK | epitopes, highly | – | – | – | – | –
C[C@H](Cn1cnc2c(N)ncnc21)OCP(=O)(O)O [Group E] | – | – | – | – | – | Average Stimulation Index +/− SE post-therapy (wks 30-46) ([3]; after discontinuing therapy, weeks 30-46): 1.4 +/− 0.2; Average Stimulation Index +/− SE during therapy (wks 0-28) ([3]; combined PMPA + DNA vaccine therapy, weeks 0-28): 1.8 +/− 0.5; Geometric mean virus loads during therapy with DNA vaccines + PMPA (weeks 5-28) (SIV/DeltaB670; weeks 5-28, during therapy): 7,192 no. of copies of viral RNA/ml plasma; Immunotherapeutic efficacy: number of monkeys maintaining virus loads at < 5000 viral RNA copies/ml plasma, during therapy (weeks 5-28) (SIV/DeltaB670; weeks 5-28, during therapy with DNA vaccines + PMPA): 4/8; Geometric mean virus loads after discontinuation of drug and vaccine therapy (weeks 30-46) (SIV/DeltaB670; weeks 30-46, after discontinuation): 38,428 no. of copies of viral RNA/ml plasma; Immunotherapeutic efficacy: number of monkeys maintaining virus loads at < 5000 viral RNA copies/ml plasma, after discontinuation (weeks 30-46) (SIV/DeltaB670; weeks 30-46, after discontinuation of drug and vaccine therapy): 1/8
CTPYDINQM [Gag181-189CM9] | – | +/+ (A + response = a minimum of 25 spot forming cells/1 × 10^6 PBMC was detected in at least 1 of the 8 monkeys per group) | +/+ (A + response = a minimum of 25 spot forming cells/1 × 10^6 PBMC was detected in at least 1 of the 8 monkeys per group) | Significant responses | NA/+ (A + response = a minimum of 25 spot forming cells/1 × 10^6 PBMC was detected in at least 1 of the 8 monkeys per group) | –
CAPPGYALL [Env235-243CL9] | – | +/+ (A + response = a minimum of 25 spot forming cells/1 × 10^6 PBMC was detected in at least 1 of the 8 monkeys per group) | +/+ (A + response = a minimum of 25 spot forming cells/1 × 10^6 PBMC was detected in at least 1 of the 8 monkeys per group) | Significant responses | NA/+ (A + response = a minimum of 25 spot forming cells/1 × 10^6 PBMC was detected in at least 1 of the 8 monkeys per group) | –
GSPAIFQYTM [Pol359-365GM10] | – | +/+ (A + response = a minimum of 25 spot forming cells/1 × 10^6 PBMC was detected in at least 1 of the 8 monkeys per group) | +/+ (A + response = a minimum of 25 spot forming cells/1 × 10^6 PBMC was detected in at least 1 of the 8 monkeys per group) | Significant responses | – | –
